# Data reported in patent US20220389373A1, “METHODS AND SYSTEMS FOR GENERATING THREE-DIMENSIONAL BIOLOGICAL STRUCTURES” (Fluicell AB, priority 2019, published 2022).
# Tested on: HaCaT cells
# Assay: Retinoic acid treatment of bioprinted psoriasis-like skin model, CK10 immunofluorescence
# Format: cell-based, human
# Conditions: printed stripes of differentiated (cytokine-treated) and non-differentiated HaCaT cells; RA 1 μM in growth media for 20 hrs; versus solvent control
structure (smiles),measurement,value
"CC1=C(/C=C/C(C)=C/C=C/C(C)=C/C(=O)O)C(C)(C)CCC1 [retinoic acid, all-trans retinoic acid]",decrease in CK10 expression for the treated samples,approximately 20%
